In patent US9511086B2, “Method for improving immune system function by administering agents that inhibit DNA-dependent protein kinase-directed apoptosis” (The Board of Trustees of the Leland Stanford Junior …, priority 2010, dated 2016):

Columns and labels:
protein kinase A = conditions: concentrations of up to 100 μM; cited from earlier work
[1] = test system: CD4+CD45RO− T cells from RA patients; assay: T-cell apoptosis by flow cytometry staining for PI, RA T cells; format: cell-based, human
Description: FIG. 5. Inhibition of DNA-PKcs activity protects RA T cells from apoptosis. CD4+CD45RO− T cells were isolated from 6 control donors and 7 RA patients. Cells were maintained in culture without stimulation for 48 h and then were treated with the DNA-PKcs inhibitor IC86621 (50 nM, 100 nM) or vehicle for 24 h. Cells were harvested and (A) T-cell apoptosis was measured by flow cytometry staining for PI. Representative cytometric data from one patient and one control are shown. (B) Frequencies of PI-positive T-cells in the absence and presence of the DNA-PKcs inhibitor from 6 controls and 7 RA patients are presented as mean±SEM.
FIG. 6. Silencing of the DNA-PKcs gene reduces apoptosis in RA T cells. CD4+CD45RO− T cells were purified from 3 control donors and 3 RA patients and transfected with control or DNA-PKcs specific siRNA oligonucleotides by nucleofection. (A, B) Twenty-four hours after transfection, DNA-PKcs transcript levels were quantified by qPCR, and DNA-PKcs protein levels were detected by Western blotting. (C) T-cell apoptosis was analyzed by staining for PI. Representative data from one patient and one control are shown. (D) Cell apoptosis from 3 control and 3 RA samples are presented as mean±SEM.
FIG. 7. […] (A) CD4+CD45RO− T cells were isolated and cultured in the presence of the indicated enzyme inhibitors for 24 h. T-cell apoptosis was quantified through flow cytometry staining for PI. (B) Cells were maintained in culture without stimulation for 48 h and then were treated with the JNK inhibitor. PI-positive T cells were measured after 24 h of treatment with the JNK inhibitor II (5 μM or 10 μM) or vehicle. Frequencies of apoptotic T cells from 6 controls and 7 RA patients are presented as mean±SEM. (C) Representative flow cytometry results from one control and one patient. (D) Flow cytometry analysis of phosphorylated JNK levels in control and RA T cells after culturing without mitogenic stimulation for 72 h. Representative data from one patient and one control are presented. (E) Expression of pJNK protein in n=6 RA and n=6 control samples at 72 h is given as MFI of FITC-pJNK. (F) Flow cytometry analysis of phosphorylated JNK levels in freshly isolated control and RA naïve CD4 T cells. Expression of pJNK protein in n=7 RA and n=7 control samples at day 0 is given as MFI of FITC-pJNK. (G) Quantification of JNK and pJNK protein expression at 72 h by Western blotting. (H) Relative expression levels of pJNK were quantified by measuring band intensities adjusted by total JNK in 6 RA patients and 6 control donors. Data are presented as mean±SEM. (I) CD4+CD45RO− T cells were purified from RA donors and transfected with control or DNA-PKcs-specific siRNA oligonucleotides by nucleofection. Twenty-four hours after transfection, DNA-PKcs and pJNK protein levels were detected by Western blotting. A representative blot from three independent experiments is shown.
Peripheral blood mononuclear cells (PBMC) were separated from whole blood with Lymphocyte Separation Medium (Mediatech Inc., Herndon, Va.). CD45RO^− cells were negatively selected with microbeads (Miltenyi Biotec Inc., Auburn, Calif.), and the naïve CD4^+CD45RO^− population was subsequently selected with CD4 microbeads (autoMACS, Miltenyi Biotec Inc.).
CD4^+CD45RO^− T cells were maintained in a resting state in DMEM without mitogenic stimulation for three days. In selected experiments, T-cell homeostatic cytokines were supplemented. To test for the role of signaling networks in mediating apoptosis, the following inhibitors were added to the cultures at day 0: DNA-PKcs inhibitor IC86621 (Sigma-Aldrich, St. Louis, Mo.), JNK inhibitor II (Calbiochem, La Jolla, Calif.), p38 inhibitor (Alexis Biochemicals, Plymouth Meeting, Pa., SB203580), CaM inhibitor (Calbiochem), NE-KB inhibitor (Calbiochem), and AKT inhibitor (Calbiochem). […]

ATR = ATR (Homo sapiens, UniProt Q13535); conditions: concentrations of up to 100 μM; cited from earlier work
aurora-related kinase 2 = aurora-related kinase 2 (Homo sapiens, UniProt Q96GD4); conditions: concentrations of up to 100 μM; cited from earlier work
casein kinase 1 = conditions: concentrations of up to 100 μM; cited from earlier work
ATM = ATM (Homo sapiens, UniProt Q13315); conditions: concentrations of up to 100 μM; cited from earlier work
[2] = biological target: cyclin-dependent kinase 2 (Homo sapiens, UniProt P24941); conditions: concentrations of up to 100 μM; cited from earlier work
[3] = biological target: T1, checkpoint protein kinase 1 (Homo sapiens, UniProt O14757); conditions: concentrations of up to 100 μM; cited from earlier work
T1 sequence (O14757 1-476): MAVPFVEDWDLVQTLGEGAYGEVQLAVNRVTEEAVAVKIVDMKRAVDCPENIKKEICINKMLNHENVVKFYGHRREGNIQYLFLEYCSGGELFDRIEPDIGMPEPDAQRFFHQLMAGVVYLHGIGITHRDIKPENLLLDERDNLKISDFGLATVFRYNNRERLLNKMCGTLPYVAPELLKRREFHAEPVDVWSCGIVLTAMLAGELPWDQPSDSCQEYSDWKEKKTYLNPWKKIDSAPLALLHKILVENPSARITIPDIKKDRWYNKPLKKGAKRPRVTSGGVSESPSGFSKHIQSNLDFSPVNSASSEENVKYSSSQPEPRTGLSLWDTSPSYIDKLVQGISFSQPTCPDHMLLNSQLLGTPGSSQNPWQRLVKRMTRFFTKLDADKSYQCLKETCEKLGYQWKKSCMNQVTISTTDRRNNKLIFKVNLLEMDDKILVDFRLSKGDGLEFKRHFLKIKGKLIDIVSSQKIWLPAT

[4] = biological target: Rous sarcoma tyrosine kinase (Homo sapiens, UniProt P12931); conditions: concentrations of up to 100 μM; cited from earlier work
Chain of Rous sarcoma tyrosine kinase (P12931 whole entry): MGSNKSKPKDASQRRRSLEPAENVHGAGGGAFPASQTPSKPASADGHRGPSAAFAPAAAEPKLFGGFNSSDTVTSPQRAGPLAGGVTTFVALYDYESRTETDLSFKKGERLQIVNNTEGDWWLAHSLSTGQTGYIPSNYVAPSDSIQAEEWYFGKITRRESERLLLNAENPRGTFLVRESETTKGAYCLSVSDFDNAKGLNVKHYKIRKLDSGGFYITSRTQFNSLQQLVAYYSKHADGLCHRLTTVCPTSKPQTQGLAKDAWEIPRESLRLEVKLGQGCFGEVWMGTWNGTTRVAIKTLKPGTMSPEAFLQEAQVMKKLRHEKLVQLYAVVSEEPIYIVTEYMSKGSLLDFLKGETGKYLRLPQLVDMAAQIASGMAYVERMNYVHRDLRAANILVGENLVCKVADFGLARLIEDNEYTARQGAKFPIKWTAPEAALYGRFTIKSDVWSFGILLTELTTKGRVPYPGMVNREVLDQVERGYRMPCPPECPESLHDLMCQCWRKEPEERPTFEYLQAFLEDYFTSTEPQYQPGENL

Chain of ATM (Q13315 whole entry, species assumed): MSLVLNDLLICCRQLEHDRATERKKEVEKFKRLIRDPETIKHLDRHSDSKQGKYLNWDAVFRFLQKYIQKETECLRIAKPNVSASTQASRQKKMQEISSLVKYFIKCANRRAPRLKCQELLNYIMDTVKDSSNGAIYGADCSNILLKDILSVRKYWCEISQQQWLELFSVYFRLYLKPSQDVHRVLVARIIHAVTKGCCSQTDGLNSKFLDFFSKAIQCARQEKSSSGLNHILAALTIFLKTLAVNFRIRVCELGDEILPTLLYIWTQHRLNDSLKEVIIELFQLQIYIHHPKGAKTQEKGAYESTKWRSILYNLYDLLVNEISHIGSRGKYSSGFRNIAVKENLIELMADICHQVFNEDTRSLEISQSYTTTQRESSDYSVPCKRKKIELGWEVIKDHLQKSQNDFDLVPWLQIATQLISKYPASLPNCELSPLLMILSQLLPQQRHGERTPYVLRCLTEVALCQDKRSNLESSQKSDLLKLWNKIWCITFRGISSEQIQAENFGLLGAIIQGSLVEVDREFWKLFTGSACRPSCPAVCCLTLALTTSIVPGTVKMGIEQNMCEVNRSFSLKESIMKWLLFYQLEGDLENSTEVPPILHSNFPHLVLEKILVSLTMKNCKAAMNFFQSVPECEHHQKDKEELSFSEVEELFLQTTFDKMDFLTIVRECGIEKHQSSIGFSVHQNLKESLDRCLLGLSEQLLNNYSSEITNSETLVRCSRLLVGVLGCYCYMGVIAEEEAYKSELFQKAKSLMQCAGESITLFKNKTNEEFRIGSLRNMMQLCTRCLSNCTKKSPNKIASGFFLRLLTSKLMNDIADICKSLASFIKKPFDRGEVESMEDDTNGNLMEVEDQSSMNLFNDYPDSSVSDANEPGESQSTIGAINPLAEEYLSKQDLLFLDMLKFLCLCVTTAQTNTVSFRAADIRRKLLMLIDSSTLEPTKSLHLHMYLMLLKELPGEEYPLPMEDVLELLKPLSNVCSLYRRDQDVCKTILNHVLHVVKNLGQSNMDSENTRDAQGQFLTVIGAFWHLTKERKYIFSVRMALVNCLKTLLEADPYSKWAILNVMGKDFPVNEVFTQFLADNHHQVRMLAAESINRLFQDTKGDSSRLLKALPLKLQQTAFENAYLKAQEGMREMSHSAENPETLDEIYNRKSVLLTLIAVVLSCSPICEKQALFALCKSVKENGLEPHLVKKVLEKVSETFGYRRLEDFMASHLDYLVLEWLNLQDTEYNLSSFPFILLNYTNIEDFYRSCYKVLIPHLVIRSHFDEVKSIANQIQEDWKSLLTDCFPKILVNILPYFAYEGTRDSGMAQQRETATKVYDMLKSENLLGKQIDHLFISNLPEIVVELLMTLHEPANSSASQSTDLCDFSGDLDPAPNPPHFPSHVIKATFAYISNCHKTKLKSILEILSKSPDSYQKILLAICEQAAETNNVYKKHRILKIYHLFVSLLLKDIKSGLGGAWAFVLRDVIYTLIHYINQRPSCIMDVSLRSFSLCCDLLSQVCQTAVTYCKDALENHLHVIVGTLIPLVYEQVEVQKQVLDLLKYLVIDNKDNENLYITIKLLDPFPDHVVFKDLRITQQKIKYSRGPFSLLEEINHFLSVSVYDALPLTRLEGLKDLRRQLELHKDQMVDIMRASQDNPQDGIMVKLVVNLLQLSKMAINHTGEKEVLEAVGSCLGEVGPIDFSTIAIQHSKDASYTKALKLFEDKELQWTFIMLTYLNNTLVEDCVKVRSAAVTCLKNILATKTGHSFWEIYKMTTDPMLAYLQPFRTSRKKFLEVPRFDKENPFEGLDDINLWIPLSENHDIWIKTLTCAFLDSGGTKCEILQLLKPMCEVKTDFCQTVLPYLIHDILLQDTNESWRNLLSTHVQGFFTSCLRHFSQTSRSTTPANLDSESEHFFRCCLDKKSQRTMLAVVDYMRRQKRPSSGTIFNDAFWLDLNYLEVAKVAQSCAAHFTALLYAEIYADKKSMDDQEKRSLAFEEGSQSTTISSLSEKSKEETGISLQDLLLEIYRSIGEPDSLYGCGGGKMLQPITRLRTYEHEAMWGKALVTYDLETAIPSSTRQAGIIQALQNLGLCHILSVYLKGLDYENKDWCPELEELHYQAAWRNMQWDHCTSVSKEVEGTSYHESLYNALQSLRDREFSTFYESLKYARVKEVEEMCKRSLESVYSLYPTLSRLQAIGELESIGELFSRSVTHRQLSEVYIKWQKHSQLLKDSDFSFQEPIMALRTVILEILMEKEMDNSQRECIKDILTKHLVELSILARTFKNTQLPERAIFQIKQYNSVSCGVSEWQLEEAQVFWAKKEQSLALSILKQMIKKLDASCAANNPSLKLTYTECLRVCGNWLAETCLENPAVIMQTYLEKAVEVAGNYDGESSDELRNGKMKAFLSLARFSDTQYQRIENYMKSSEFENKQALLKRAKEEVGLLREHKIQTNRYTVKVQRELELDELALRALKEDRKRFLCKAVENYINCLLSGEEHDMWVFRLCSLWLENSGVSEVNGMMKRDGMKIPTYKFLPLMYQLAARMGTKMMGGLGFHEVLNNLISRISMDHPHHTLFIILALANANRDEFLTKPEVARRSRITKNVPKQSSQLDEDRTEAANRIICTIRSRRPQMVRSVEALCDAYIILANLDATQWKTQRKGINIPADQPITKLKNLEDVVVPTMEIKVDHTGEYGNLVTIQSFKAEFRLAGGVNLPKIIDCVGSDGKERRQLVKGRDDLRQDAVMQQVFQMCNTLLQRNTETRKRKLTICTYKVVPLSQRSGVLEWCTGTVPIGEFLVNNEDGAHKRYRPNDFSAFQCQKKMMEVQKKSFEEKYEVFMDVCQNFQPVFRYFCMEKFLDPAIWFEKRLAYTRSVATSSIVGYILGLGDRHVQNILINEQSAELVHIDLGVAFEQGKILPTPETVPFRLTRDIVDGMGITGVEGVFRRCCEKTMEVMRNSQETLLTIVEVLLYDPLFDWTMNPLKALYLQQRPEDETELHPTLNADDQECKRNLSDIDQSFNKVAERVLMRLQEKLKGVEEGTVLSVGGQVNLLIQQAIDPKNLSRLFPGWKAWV
Chain of aurora-related kinase 2 (Q96GD4 whole entry): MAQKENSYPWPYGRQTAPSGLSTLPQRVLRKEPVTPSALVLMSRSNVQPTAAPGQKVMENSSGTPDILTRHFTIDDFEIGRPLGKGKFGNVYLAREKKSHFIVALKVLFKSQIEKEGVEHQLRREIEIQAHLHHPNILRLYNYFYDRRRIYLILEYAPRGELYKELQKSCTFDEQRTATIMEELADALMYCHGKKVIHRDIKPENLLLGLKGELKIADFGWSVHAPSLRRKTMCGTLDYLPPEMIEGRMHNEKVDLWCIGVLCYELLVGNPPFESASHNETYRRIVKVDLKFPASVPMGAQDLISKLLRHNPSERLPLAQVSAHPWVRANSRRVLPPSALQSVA

## CC(=O)c1ccc(N2CCOCC2)cc1O [IC86621, 1-(2-hydroxy-4-morpholin-4-ylphenyl)ethanone]
Protein kinase A
  activity against protein kinase A: neither activity
[1]; 50 nM, 100 nM
  protection of RA T cells from apoptosis, dose dependence: dose-dependent
[1]; RA T cells
  doses at which T cell survival was improved: 50 to 100 nM
[1]; RA T cells, 48 h culture then inhibitor (50 nM, 100 nM) for 24 h, PI-positive cells
  survival rates among RA T cells: improved survival rates
[1]; RA T cells, 72 h ex vivo culture
  dose sufficient to normalize apoptotic susceptibility (PI-positive cells reduced to levels of control T cells): 100 nM
ATR
  activity against ATR: neither activity
aurora-related kinase 2
  activity against aurora-related kinase 2: neither activity
Casein kinase 1
  activity against casein kinase 1: neither activity
ATM
  activity against ATM: neither activity
[2]
  activity against cyclin-dependent kinase 2: neither activity
[3]
  activity against checkpoint protein kinase 1: neither activity
[4]
  activity against Rous sarcoma tyrosine kinase: neither activity
